From patent US12043600B2, “Microbiocidal compounds” (SYNGENTA CROP PROTECTION AG, priority 2018, dated 2024)

Legend:
[1] = tested on: Puccinia recondita f. sp. tritici; experiment: Puccinia recondita f. sp. tritici/Wheat/Leaf Disc Curative (Brown Rust); format: in vivo; conditions: foliar, wheat leaf disc curative, compared to untreated control
How it was run: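 Formulated compound, diluted in water, is applied to inoculated wheat cv. Kanzler leaf segments on agar one day post-inoculation (pre-incubation dark, 19° C, 75% rh). After 6-8 days at 19° C, 75% rh and 12 h/12 h light, activity is rated as percent disease control relative to untreated segments.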

Plasmopara viticola = experiment: whole plant or invertebrate; format: in vivo; conditions: foliar, read-out: control of Plasmopara viticola
[2] = tested on: Magnaporthe grisea (Pyricularia oryzae); experiment: whole plant or invertebrate; format: in vivo; conditions: foliar, read-out: control of Magnaporthe grisea
[3] = tested on: Botryotinia fuckeliana (Botrytis cinerea); experiment: Botryotinia fuckeliana (Botrytis cinerea)/Liquid Culture (Gray Mould); format: cell-based; conditions: liquid culture, compared to untreated control
Experimental: Conidia of the fungus from cryogenic storage are directly mixed into nutrient broth (Vogels broth). After placing a (DMSO) solution of test compound into a microtiter plate (96-well format), the nutrient broth containing the fungal spores is added.

[4] = tested on: Monographella nivalis (Microdochium nivale); experiment: Monographella nivalis (Microdochium nivale)/Liquid Culture (Foot Rot Cereals); format: cell-based; conditions: liquid culture, compared to untreated control
How it was run: (§1)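 Liquid-culture format using potato dextrose broth inoculated directly with cryopreserved conidia, dosed with compound from a DMSO solution.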

[5] = tested on: Glomerella lagenarium (Colletotrichum lagenarium); experiment: Glomerella lagenarium (Colletotrichum lagenarium)/Liquid Culture (Anthracnose); format: cell-based; conditions: Colletotrichum orbiculare, liquid culture, compared to untreated control
[6] = tested on: Mycosphaerella arachidis (Cercospora arachidicola); experiment: Mycosphaerella arachidis (Cercospora arachidicola)/Liquid Culture (Early Leaf Spot); format: cell-based; conditions: liquid culture, compared to untreated control
How it was run: as §1

[7] = tested on: Mycosphaerella graminicola (Septoria tritici); experiment: Mycosphaerella graminicola (Septoria tritici)/Liquid Culture (Septoria Blotch); format: cell-based; conditions: Zymoseptoria tritici; 20 ppm; liquid culture; compared to untreated control
How it was run: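 Results given as % disease control: test compound in DMSO was placed in wells first, then potato dextrose broth carrying cryostored fungal conidia was added.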

Phytophthora infestans = experiment: whole plant or invertebrate; format: in vivo; conditions: in Solanum lycopersicum, foliar, read-out: control of Phytophthora infestans
[8] = tested on: Puccinia recondita f. sp. tritici; experiment: Puccinia recondita f. sp. tritici/Wheat/Leaf Disc Preventative (Brown Rust); format: in vivo; conditions: foliar, 200 ppm, wheat leaf disc preventative, compared to untreated control, read-out: control of Puccinia recondita f. sp. tritici
[9] = tested on: Thanatephorus cucumeris (Rhizoctonia solani); experiment: Thanatephorus cucumeris (Rhizoctonia solani)/Liquid Culture (Foot Rot, Damping-Off); format: cell-based; conditions: liquid culture, compared to untreated control
Experimental: Mycelia fragments of a newly grown liquid culture of the fungus are directly mixed into nutrient broth (PDB potato dextrose broth). After placing a (DMSO) solution of the test compounds into a microtiter plate (96-well format), the nutrient broth containing the fungal material is added.

[10] = tested on: Phaeosphaeria nodorum (Septoria nodorum); experiment: Phaeosphaeria nodorum (Septoria nodorum)/Wheat/Leaf Disc Preventative (Glume Blotch); format: in vivo; conditions: Parastagonospora nodorum, foliar, wheat leaf disc preventative, compared to untreated control
How it was run: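 Preventative test: compound spray first, then spore inoculation after 2 days on cv. Kanzler wheat leaf segments. Incubation in a climate cabinet at 20 °C and 75% rh under a 12 h light/12 h dark cycle. Activity rated as % control relative to untreated discs at 5–7 days post-application.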

Pyrenophora teres = experiment: Pyrenophora teres/Barley/Leaf Disc Preventative (Net Blotch); format: in vivo; conditions: foliar, 200 ppm, barley leaf disc preventative, compared to untreated control, read-out: control of Pyrenophora teres
How it was run: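 Preventative leaf-disc test: inoculation with fungal spores took place 2 days after spraying segments of barley cv. Hasso, placed on agar, with water-diluted formulated compound. Read-out is % disease control per compound.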

[11] = tested on: Blumeria graminis f. sp. tritici (Erysiphe graminis f. sp. tritici); experiment: Blumeria graminis f. sp. tritici/Wheat/Leaf Disc Preventative (Powdery Mildew on Wheat); format: in vivo; conditions: foliar, wheat leaf disc preventative, compared to untreated control
How it was run: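 Preventative leaf-disc test: percent disease control versus untreated leaf segments read 6-8 days post-application. Compound spray applied to wheat cv. Kanzler segments on agar one day before shaking infected plants over them; incubation at 20° C and 60% rh, 24 h darkness then 12 h light/12 h dark cycles.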

Alternaria solani = experiment: Alternaria solani/Tomato/Leaf Disc (Early Blight); format: in vivo; conditions: foliar, tomato leaf disc, compared to untreated control
How it was run: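 Protective leaf-disc test: compound sprayed onto tomato cv. Baby disks, spore inoculation following after 2 days. Disks kept at 80% rh, 12/12 h light/dark, 23° C. day and 21° C. night; activity read as percent disease control relative to untreated checks 5-7 days post-application.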

Phakopsora pachyrhizi = experiment: Phakopsora pachyrhizi/Soybean/Preventative (Soybean Rust); format: in vivo; conditions: foliar, 288 h, 200 ppm, soybean leaf disc preventative, compared to untreated control, read-out: control of Phakopsora pachyrhizi

CO/C=C(\Oc1cc(-n2cc(F)c(C(C)C)n2)ccc1C)C(=O)OC [Compound E-46, methyl (Z)-2-[5-(4-fluoro-3-isopropyl-pyrazol-1-yl)-2-methyl-phenoxy]-3-methoxy-prop-2-enoate]
pest or weed control at 200 ppm [1]: ≥ 80%
pest or weed control at 200 ppm (Plasmopara viticola): ≥ 80%
pest or weed control at 200 ppm [2]: ≥ 80%
inhibition of growth at 20 ppm [3]: ≥ 80%
inhibition of growth at 20 ppm [4]: ≥ 80%
inhibition of growth at 20 ppm [5]: ≥ 80%
melting point: 111 to 113 °C
inhibition of growth at 20 ppm [6]: ≥ 80%
inhibition of growth at 20 ppm [7]: ≥ 80%
pest or weed control at 200 ppm (Phytophthora infestans): ≥ 80%
pest or weed control at 200 ppm [8]: ≥ 80%
inhibition of growth at 20 ppm [9]: ≥ 80%

CO/C=C(\Oc1cc(-n2ccc(C(C)C)n2)c(OC)cc1C)C(=O)OC [Compound E-31, methyl (Z)-2-[5-(3-isopropylpyrazol-1-yl)-4-methoxy-2-methyl-phenoxy]-3-methoxy-prop-2-enoate]
pest or weed control at 200 ppm [1]: ≥ 80%
pest or weed control at 200 ppm (Plasmopara viticola): ≥ 80%
pest or weed control at 200 ppm [2]: ≥ 80%
inhibition of growth at 20 ppm [3]: ≥ 80%
inhibition of growth at 20 ppm [4]: ≥ 80%
inhibition of growth at 20 ppm [5]: ≥ 80%
inhibition of growth at 20 ppm [6]: ≥ 80%
pest or weed control at 200 ppm [10]: ≥ 80%
inhibition of growth at 20 ppm [7]: ≥ 80%
pest or weed control at 200 ppm (Phytophthora infestans): ≥ 80%
pest or weed control at 200 ppm [8]: ≥ 80%
inhibition of growth at 20 ppm [9]: ≥ 80%

C/C=C/c1ccn(-c2ccc(C)c(O/C(=C\OC)C(=O)OC)c2)n1 [Compound E-38, methyl (Z)-3-methoxy-2-[2-methyl-5-[3-[(E)-prop-1-enyl]pyrazol-1-yl]phenoxy]prop-2-enoate]
pest or weed control at 200 ppm [1]: ≥ 80%
pest or weed control at 200 ppm (Plasmopara viticola): ≥ 80%
pest or weed control at 200 ppm [2]: ≥ 80%
inhibition of growth at 20 ppm [3]: ≥ 80%
inhibition of growth at 20 ppm [4]: ≥ 80%
inhibition of growth at 20 ppm [5]: ≥ 80%
melting point: 110 to 112 °C
inhibition of growth at 20 ppm [6]: ≥ 80%
pest or weed control at 200 ppm (Pyrenophora teres): ≥ 80%
inhibition of growth at 20 ppm [7]: ≥ 80%
pest or weed control at 200 ppm (Phytophthora infestans): ≥ 80%
pest or weed control at 200 ppm [11]: ≥ 80%
pest or weed control at 200 ppm [8]: ≥ 80%
inhibition of growth at 20 ppm [9]: ≥ 80%

C/C=C(\C)c1ccn(-c2ccc(C)c(O/C(=C\OC)C(=O)OC)c2)n1 [Compound E-43, methyl (Z)-3-methoxy-2-[2-methyl-5-[3-[(E)-1-methylprop-1-enyl]pyrazol-1-yl]phenoxy]prop-2-enoate]
pest or weed control at 200 ppm [1]: ≥ 80%
pest or weed control at 200 ppm (Plasmopara viticola): ≥ 80%
pest or weed control at 200 ppm [2]: ≥ 80%
inhibition of growth at 20 ppm [3]: ≥ 80%
inhibition of growth at 20 ppm [4]: ≥ 80%
inhibition of growth at 20 ppm [5]: ≥ 80%
melting point: 115 to 118 °C
inhibition of growth at 20 ppm [6]: ≥ 80%
inhibition of growth at 20 ppm [7]: ≥ 80%
pest or weed control at 200 ppm (Phytophthora infestans): ≥ 80%
pest or weed control at 200 ppm [8]: ≥ 80%
inhibition of growth at 20 ppm [9]: ≥ 80%

C=Cc1ccn(-c2ccc(C)c(O/C(=C\OC)C(=O)OC)c2)n1 [Compound E-45, methyl (Z)-3-methoxy-2-[2-methyl-5-(3-vinylpyrazol-1-yl)phenoxy]prop-2-enoate]
pest or weed control at 200 ppm [1]: ≥ 80%
pest or weed control at 200 ppm (Plasmopara viticola): ≥ 80%
pest or weed control at 200 ppm [2]: ≥ 80%
inhibition of growth at 20 ppm [4]: ≥ 80%
inhibition of growth at 20 ppm [5]: ≥ 80%
melting point: 114 to 117 °C
inhibition of growth at 20 ppm [6]: ≥ 80%
pest or weed control at 200 ppm [10]: ≥ 80%
pest or weed control at 200 ppm (Pyrenophora teres): ≥ 80%
inhibition of growth at 20 ppm [7]: ≥ 80%
pest or weed control at 200 ppm (Phytophthora infestans): ≥ 80%
pest or weed control at 200 ppm [11]: ≥ 80%
pest or weed control at 200 ppm [8]: ≥ 80%
inhibition of growth at 20 ppm [9]: ≥ 80%

CO/C=C(\Oc1cc(-n2ccc(C(F)(F)F)n2)c(OC)cc1C)C(=O)OC [Compound E-32, methyl (Z)-3-methoxy-2-[4-methoxy-2-methyl-5-[3-(trifluoromethyl)pyrazol-1-yl]phenoxy]prop-2-enoate]
pest or weed control at 200 ppm [1]: ≥ 80%
pest or weed control at 200 ppm (Plasmopara viticola): ≥ 80%
pest or weed control at 200 ppm [2]: ≥ 80%
inhibition of growth at 20 ppm [3]: ≥ 80%
inhibition of growth at 20 ppm [4]: ≥ 80%
inhibition of growth at 20 ppm [5]: ≥ 80%
melting point: 130 to 133 °C
inhibition of growth at 20 ppm [6]: ≥ 80%
pest or weed control at 200 ppm [10]: ≥ 80%
inhibition of growth at 20 ppm [7]: ≥ 80%
pest or weed control at 200 ppm (Phytophthora infestans): ≥ 80%
pest or weed control at 200 ppm [11]: ≥ 80%
pest or weed control at 200 ppm [8]: ≥ 80%
inhibition of growth at 20 ppm [9]: ≥ 80%

CO/C=C(\Oc1cc(-n2ccc(C(F)(F)F)n2)ccc1Cl)C(=O)OC [Compound E-98, methyl (Z)-2-[2-chloro-5-[3-(trifluoromethyl)pyrazol-1-yl]phenoxy]-3-methoxy-prop-2-enoate]
pest or weed control at 200 ppm (Plasmopara viticola): ≥ 80%
pest or weed control at 200 ppm [2]: ≥ 80%
inhibition of growth at 20 ppm [3]: ≥ 80%
inhibition of growth at 20 ppm [4]: ≥ 80%
inhibition of growth at 20 ppm [5]: ≥ 80%
inhibition of growth at 20 ppm [6]: ≥ 80%
pest or weed control at 200 ppm (Alternaria solani): ≥ 80%
inhibition of growth at 20 ppm [7]: ≥ 80%
pest or weed control at 200 ppm (Phytophthora infestans): ≥ 80%
pest or weed control at 200 ppm [11]: ≥ 80%
pest or weed control at 200 ppm (Phakopsora pachyrhizi): ≥ 50%
pest or weed control at 200 ppm [8]: ≥ 80%
inhibition of growth at 20 ppm [9]: ≥ 80%

C=C(C)c1ccn(-c2ccc(C)c(O/C(=C\OC)C(=O)OC)c2)n1 [Compound E-65, methyl (Z)-2-[5-(3-isopropenylpyrazol-1-yl)-2-methyl-phenoxy]-3-methoxy-prop-2-enoate]
pest or weed control at 200 ppm [1]: ≥ 80%
pest or weed control at 200 ppm (Plasmopara viticola): ≥ 80%
pest or weed control at 200 ppm [2]: ≥ 80%
inhibition of growth at 20 ppm [3]: ≥ 80%
inhibition of growth at 20 ppm [4]: ≥ 80%
inhibition of growth at 20 ppm [5]: ≥ 80%
melting point: 80 to 84 °C
inhibition of growth at 20 ppm [6]: ≥ 80%
pest or weed control at 200 ppm [10]: ≥ 80%
inhibition of growth at 20 ppm [7]: ≥ 80%
pest or weed control at 200 ppm [8]: ≥ 80%
inhibition of growth at 20 ppm [9]: ≥ 80%
